What all share (assay): NCI anticancer screen, dose series, 48 h
Assay [1] deals with T-47D breast.
Assay [2] concerns SNB-75 CNS.
Assay [3] relates to SR leukemia.
Assay [4] deals with COLO 205 colon.
The test system of assay [5] is A498 renal.
The test system of assay [6] is CAKI-1 renal.
Assay [7] deals with HT29 colon.
Assay [8] concerns HS 578T breast.
The subject of assay [9] is SN12C renal.
Assay [10] deals with OVCAR-4 ovarian.

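Step 1: Grow cells in 96-well plates. Step 2: Expose to compound for 48 hours at 5 concentrations. Step 3: Interpolate endpoints linearly; if unreached, use highest concentration. TGI: total growth inhibition.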

For the compound `CC(=O)N(O)c1ccc(-c2nc3ccccc3s2)cc1`, the TGI in assay [1], in [2], in assay [3], in assay [4], in assay [5] and in assay [6] was more than 100 µM in each case. For the same compound, the TGI in [7], in assay [8], in assay [9] and in [10] was more than 100 µM each time.

As to `CNc1ncc(-c2nnnn2-c2ccccc2)c(CN(C)C)n1`, the TGI in assay [1], in assay [2], in assay [3], in [4], in assay [5] and in [6] was more than 100 µM in each case. In addition, the TGI in [7], in [8] and in assay [9] was more than 100 µM in each case.

Consider `CC1CC(=O)N(N(C)C)C(C#N)(C#N)C1(C#N)C#N` (configuration not stated), for which the TGI in assay [1] was 42.1 µM; in assay [2], more than 51 µM; in assay [3], 30.7 µM; in assay [4] it was 7.99 µM; in assay [5], 34.1 µM; in [6] it was 5.23 µM. The TGI in assay [7] is 38 µM; in assay [8], 59.7 µM; in [9], 37 µM; in assay [10], 33.4 µM.

With `CC1(C)CC(=O)C2=C(C1)OC1=C(CC(C)(C)CC1=O)C2c1ccccc1[N+](=O)[O-]` (configuration not stated), the TGI in assay [1], in assay [2], in [3], in [4], in assay [5] and in assay [6] was more than 100 µM in each case. For the same compound, the TGI in assay [7], in [8], in assay [9] and in assay [10] was more than 100 µM in each case.

Regarding `O=C(NNc1nc(-c2ccccc2)cs1)C(F)(F)F`, the TGI in assay [1] was more than 100 µM; in assay [2], 91 µM; in assay [3] it was more than 100 µM; in [4], more than 100 µM; in assay [5], 88.2 µM; in [6] it was more than 100 µM. Moreover, the TGI in assay [7] was more than 100 µM; in [8] it was 52.2 µM; in [9], more than 100 µM; in assay [10], more than 100 µM.

For the compound `CC(=O)Oc1ccc(/C=C/C(=O)O[C@@H](C(=O)O)[C@@H](OC(=O)/C=C/c2ccc(OC(C)=O)c(OC(C)=O)c2)C(=O)O)cc1OC(C)=O`, the TGI in assay [1], in [2], in assay [3], in assay [4], in [5] and in [6] was more than 100 µM each time. For the same compound, the TGI in assay [8], in assay [9] and in [10] was more than 100 µM throughout.

In the case of `C[Si](C)(c1ccccc1)[C@H]1CCCC=C1CCNC1c2ccccc2CCc2ccccc21`, the TGI in assay [1], in [2], in assay [3], in assay [4], in assay [5] and in [6] was more than 100 µM throughout. The TGI in assay [7], in assay [8], in assay [9] and in [10] was more than 100 µM each time.

In the case of `CCc1ccccc1NNc1cc(=O)[nH]c(=O)[nH]1`, the TGI was 37.7 µM in assay [1]; 40.5 µM in assay [2]; more than 100 µM in [3]; 34.5 µM in [4]; 45.8 µM in assay [5]; 21.5 µM in assay [6]. The TGI was 39.3 µM in [7], 68.6 µM in assay [8], 39 µM in assay [9] and 38 µM in [10].

For `CSc1c(C(=O)Nc2ccc(Cl)cc2)c(N)n(N)c(=O)c1C#N`, the TGI in assay [1], in assay [2], in assay [3], in assay [4], in assay [5] and in [6] was more than 100 µM each time. For the same compound, the TGI in assay [7], in assay [8], in assay [9] and in assay [10] was more than 100 µM throughout.

Consider `C/C1=C\C=C(\C(C)C)CC/C(C(=O)O)=C\CC/C(C)=C/CC1`, for which the TGI in assay [1] is more than 100 µM; in assay [2], more than 100 µM; in assay [3] it was 38.6 µM; in [4], 50.6 µM; in assay [5], 34.1 µM; in assay [6] it was 88.3 µM. Moreover, the TGI in [7] was 99 µM; in [8] it was more than 100 µM; in [9], 45.9 µM; in assay [10], more than 100 µM.

For the compound `Fc1cccc(F)c1C1SCc2nc3ccc(Cl)cc3n21` (configuration not stated), the TGI in assay [1], in [2], in assay [3], in [4], in assay [6] and in [7] was more than 100 µM throughout. For the same compound, the TGI in [8], in assay [9] and in [10] was more than 100 µM in each case.

Take `C[Si](C)(C)C1=C([Si](C)(C)C)C(Cl)(Cl)C1=O`: the TGI in assay [1] turned out to be 6.35 µM; in assay [2], 24.9 µM; in assay [3], 5.46 µM; in assay [4] it was 4.87 µM; in assay [5], 29.8 µM; in [6] it was 7.14 µM. For the same compound, the TGI in assay [7] was found to be 13.7 µM; in [8], 55.7 µM; in [9], 15.8 µM; in [10] it was 12.5 µM.

As to `CCN(CC)c1ccc(/C=C/C=C2C(=O)NC(=S)NC2=O)cc1`, the TGI in assay [1], in assay [2], in assay [3], in assay [4], in assay [5] and in assay [6] was more than 100 µM in each case. Further, the TGI in [7] was more than 100 µM; in [8], more than 53.7 µM; in assay [9] it was more than 100 µM; in [10] it was more than 100 µM.

As for `O=[N+]([O-])c1ccc(O)c(/C=N/NC(=S)N2CCCCC2)c1`, the TGI in [1] was more than 80.1 µM; in assay [2], 33.1 µM; in assay [3], more than 70.2 µM; in assay [4], more than 37.9 µM; in assay [5], more than 44.2 µM; in assay [6], 34.4 µM. The TGI was 15 µM in assay [7], more than 60 µM in assay [8], more than 41.9 µM in [9] and 50.7 µM in [10].

These data come from PubChem BioAssay (NCI).
